Like-named read-outs stand apart in the source and are kept apart here.

The test system of data set [1] is L1210/0. The data set is described as follows: Growth inhibition in L1210/0 cells. Type of data set: cell-based, murine. The conditions noted are these: 2 hours of exposure; mean (±SE), 3 experiments of 2 determinations.
Text: To examine the pro-drug potential in a biological setting, a comparison of the pharmacological properties of the blocked polyamine compounds in L1210 murine leukemia cells was undertaken.
Data set [2] has as its system 41M. Nature of the data set: SRB growth inhibition assay, 41M. The format is cell-based, human. The note with it: 96 h exposure. On the procedure:
(§1) Cell culture. A2780, A2780/CDDP, CH1, CH1/CDDP, 41M and 41M/CDDP cell lines were used in this study and maintained according to published procedures. (8,9).
(§2) Growth inhibition assay. The Sulforhodamine B (SRB) assay was used to determine growth inhibition potency of platinum drugs (10). The cells were seeded in 96-well microtitre plates at 3-8×10^3 cells/well in 160 μL growth medium and allowed to attach overnight. Platinum agents were then added after serial dilution in quadruplicate wells and exposed to cells for 2 or 96 hours. After the 2 hours drug incubations were complete, plates were washed free of drug with phosphate-buffered saline (PBS) and then refed with normal growth medium for a further 94 hours. Quantitation of cell growth in treated and control wells was then assessed using 0.4% SRB dissolved in 1% acetic acid. IC50 values were determined graphically.
(§3) Of special interest is the remarkably low value for 4 (Fmoc) in A2780 cells.

Data set [3] relates to L1210/0. The data set is described as follows: Cellular accumulation in L1210/0 cells. The format is cell-based, murine. The note with it: 2 hours of exposure; (±SE), 3 experiments of 2 determinations. How it is done: (§4) Cellular accumulation. The cellular accumulation assays followed published procedures (7). Briefly, cells were resuspended at 10^7/mL in media supplemented with […]. Platinum complexes were added, and samples were incubated at 37° C. in 5% CO2. At 0 and 2 hours aliquots were removed for determination of cell concentrations and for measurement of platinum content. For the latter, aliquots were washed three times in cold phosphate buffered saline, resuspended in 1% Triton-X in water, and sonicated. Platinum content was measured by flameless atomic absorption spectroscopy.
(§5) The cellular accumulation of the blocked Pt compound 2 was also investigated. […] Based solely on charge considerations the BOC-spermidine with a charge of 2+ should have cellular uptake similar to 1,1/t,t (n=6). The enhanced uptake could be explained by some hydrolysis in media or plasma producing small amounts of the protonated 1,1/t,t-spermidine. Considering the potency of polynuclear-polyamine compounds, a small percentage of hydrolysis could have a significant impact on in vivo activity.

In data set [4] the test system is CH1/CDDP. Nature of the data set: SRB growth inhibition assay, CH1/CDDP. The note with it: for IC50: 96 h exposure; for RF CH1/CDDP: IC50 resistant/IC50 parent line, 96 h. Type of data set: cell-based, human. On the procedure:
as §1
as §2, with “graphically. […]” for “graphically.”

Data set [5] concerns L1210/DDP. The data set is described as follows: Growth inhibition in L1210/DDP cells. Type of data set: cell-based, murine.
The subject of data set [6] is A2780. The data set is described as follows: SRB growth inhibition assay, A2780. The conditions noted are these: 96 h exposure. The format is cell-based, human. On the procedure:
as §1, §2, §3

A short description of data set [7]: pKa of the N4 site by pH titration monitored by 1H NMR. Type of data set: physicochemical. How it is done: pH measurements were taken on a Corning 340 pH meter with combined glass electrode. pD values in deuterated solutions were obtained by addition of 0.4 units to the meter reading. Extinction coefficients were determined with a Jasco V-550 UV/VIS spectrophotometer using 1 cm cuvettes.
In order to find the optimal conditions for the synthetic procedure, the pKa of the N4 site of the unprotected Pt spermidine complex 1 was determined prior to the protection reactions (6). A pH titration was carried out and monitored by ^1H NMR spectroscopy (11 and 12). […] The increased acidity is most likely a consequence of the electron withdrawing effect of the coordinated platinum centers.

For data set [8], the system named is A2780/CDDP. Nature of the data set: SRB growth inhibition assay, A2780/CDDP. Type of data set: cell-based, human. The note with it: for IC50: 96 h exposure; for RF A2780/CDDP: IC50 resistant/IC50 parent line, 96 h. On the procedure:
as §1
as §2, with “graphically. […]” for “graphically.”

Data set [9] has as its system CH1. Nature of the data set: SRB growth inhibition assay, CH1. The note with it: 96 h exposure. The format is cell-based, human. On the procedure: as §1, §2, §3
Data set [10] deals with L1210/DDP. Nature of the data set: Cellular accumulation in L1210/DDP cells. The conditions noted are these: 2 hours of exposure; (±SE), 3 experiments of 2 determinations. Type of data set: cell-based, murine. On the procedure: as §4, §5
In data set [11] the test system is 41M/CDDP. Nature of the data set: SRB growth inhibition assay, 41M/CDDP. The format is cell-based, human. The conditions noted are these: for IC50: 96 h exposure, read-out: 96H IC50 CH1/CDDP; for RF CH1/CDDP: IC50 resistant/IC50 parent line, 96 h. On the procedure:
as §1, §2, §3

The format of data set [12] is physicochemical. The conditions noted are these: first order. How it is done:
Analyses of the products and hydrolysis studies were carried out on an analytical Beckman System Gold Nouveau HPLC instrument with UV detection at 215 nm. A Lichrosphere RP-8 column (5 μm particle size, dimensions 250 mm×4 mm) was used with a solvent gradient from water/methanol 97:3 (0.05 M NaClO4, 1% NaCl) to water/methanol 70:30 (0.05 M NaClO4, 2% NaCl).
Hydrolysis Study. For the hydrolysis experiments 10^−3 mMol complex were dissolved in 1 mL of nanopure water. The pH of the solutions was adjusted by addition of HNO3 (0.1 M, 0.01 M) and NaOH (0.1 M, 0.01 M), respectively. The samples were incubated in a water bath at 37° C. and aliquots of 20 μL were taken from the bulk solution for HPLC analysis. The pH values of the samples were controlled in regular intervals and readjusted if necessary.
The hydrolysis of the protective groups of compounds 2-4 was monitored at 37° C. at various pH values. […] In addition, the chromatogram of 2 contained a peak of a minor impurity (ca 0.4%) which remained unchanged during the timecourse of the reaction. Deprotection of the secondary amino function leads to the appearance of a signal for the unprotected spermidine complex 1 that, as a consequence of the increased cationic charge, is well separated from the signal of the N4 blocked precursor. The area percentage of the integrated signal of the unprotected species is taken as an estimate for the amount of hydrolysis at a given timepoint. To allow for a more accurate quantitative comparison of results, the extinction coefficients for compounds 1-4 were determined at 215 nm (Table 1). The integral values of the blocked compounds have been corrected for the higher absorbance of these species at the observed wavelength compared to the unprotected species 1. Table 2 provides a summary of the amount of hydrolysis for all samples before and after the correction. Rate constants were calculated based on the corrected integral values.
The hydrolysis of the blocking groups of on the N4 position of compounds 5-7 was monitored at 37° C. over a pH range of 6-8.
The amount of 1,1/t,t-spermidine released over time is depicted in FIG. 8. No other products were detected, trifluoroacetate, originating from the hydrolysis reaction, is not retained on the column under the present conditions and coelutes with the other anions (Cl^− from 5, NO3^− from pH adjustment). In order to obtain rate constants for the conversion of 7 to 1,1/t,t-spermidine, the integral values of the chromatograms were corrected for the different absorption of the species at the observed wavelength (ε215: 1, 3.64·10^3; 5, 7.62·10^3; 6, 10.4·10^3; 7, 9.46·10^3 L.Mol^−1 .cm^−1). Concentrations were calculated based on the assumption that the sum of the concentrations of both species at every time point equals the original concentration of 7 at the start of the experiment. First order rate constants were obtained using the program MicroMath Scientist Version 2.01. The results are summarized in Table 3 and compared with values obtained for BOC and Fmoc protected spermidine complexes.

Take `N.N.N.N.NCCCC[NH2+]CCCN.[Cl-].[Cl-].[Cl-].[Cl][Pt+].[Cl][Pt+]` [Compound 1, [{trans-Pt(NH3)2Cl}2-μ-spermidine-N^1,N^8]Cl3]: the IC50 in [1] is 0.75 µM; in data set [2], < 0.25 µM; in [4], 0.35 µM; in [5] (2 hours of exposure, mean (±SE), 3 experiments of 2 determinations) it was 0.26 µM; in [6], < 0.25 µM; in data set [8], < 0.25 µM. For the same compound, the IC50 in data set [9] was determined as 0.43 µM. In addition, in [3], the “Accumulation L1210/0” value was 17 (3.4) attamol Pt complex/cell. The “RF CH1/CDDP” value in data set [4] was 0.8. In data set [5] (IC50 L1210/DDP / IC50 L1210/0, 2 hours of exposure), the “RF, resistance factor” value was found to be 0.35. Also, the “pKa of the N4 site” value in data set [7] was 9.24±0.05. For the same compound, the “Accumulation L1210/DDP” value in data set [10] is listed as 20 (2.1) attamol Pt complex/cell.
Take `CC(=O)N(CCCN)CCCCN.N.N.N.N.[Cl-].[Cl-].[Cl][Pt+].[Cl][Pt+]` [Compound 5, [{trans-Pt(NH3)2Cl}2-μ-N^4—CH3CO-spermidine-N^1,N^8]Cl2]: the IC50 was 24 µM in data set [11]; 17.5 µM in data set [2]; 12.5 µM in [4]; 14 µM in data set [6]; 54 µM in [8]; 7.4 µM in data set [9]. The “RF CH1/CDDP” value in data set [11] stood at 1.4; in data set [4] it was 1.7. Also, the “RF A2780/CDDP” value in [8] came to 3.9.
For the compound `N.N.N.N.NCCCCN(CCCN)C(=O)C(F)(F)F.[Cl-].[Cl-].[Cl][Pt+].[Cl][Pt+]` [Compound 7, [{trans-Pt(NH3)2Cl}2-μ-N^4—CF3CO-spermidine-N^1,N^8]Cl2], the IC50 in data set [11] turned out to be 19 µM; in [2], 3.7 µM; in data set [4], 5 µM; in data set [6], 6.8 µM; in data set [8] it was 46 µM; in data set [9] it was 2.4 µM. Besides, the “RF CH1/CDDP” value in [11] was 5.1; in [4], 2.1. In [8], the “RF A2780/CDDP” value is reported as 6.8. Besides, the “Rate constant for the deprotection” value was 4.44 (±0.11) · 10^−8 s^−1 in [12] (pH 6, 37° C.); 2.73 (±0.06) · 10^−7 s^−1 in [12] (pH 7, 37° C.); 1.79 (±0.03) · 10^−6 s^−1 in [12] (pH 8, 37° C.).
